# Values of other authors in patent US20070173464A1, “Oral ribavirin pharmaceutical compositions” (Flamel Technologies, priority 2005, published 2007).
# Tests used:
# Hepatitis C Virus (HC) = conditions: up to 1200 mg per day, typically 48 weeks, in conjunction with interferon or long acting pegylated interferon; genotype I patients
smiles,measurement,setting,value
"NC(=O)c1ncn([C@@H]2O[C@H](CO)[C@@H](O)[C@H]2O)n1 [Ribavirin, 1-beta-D-ribofuranosyl-1,2,4-thiazole-3-carboxamide]",sustained virologic response,Hepatitis C Virus (HC),30 to 55 % of genotype I patients
same,water solubility,,140 mg/mL
